Laboratory results reported in PubChem BioAssay AID2060885 (Molecular Pharmacology Branch, DTP, NCI, 2025).
Several values for one entry are separate records, joined by “and”; a condition that tells them apart may be missing. Identical values can stand only once.

System: NCI-H23 complex spheroids with HUVEC/MSC, viability
Experiment: Anticancer human tumor NCI-H23 cell line growth inhibition [RAS];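 also: spheroids exposed to compound for 7 days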;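 as to viability, T/C: 100% = DMSO vehicle control viability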
Conditions: for viability, T/C: stronger effect = lower value
Procedure, shortened: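 Multi-cell-type spheroids: tumor cells plus HUVEC endothelial cells and mesenchymal stem cells. RAS-pathway inhibitors were combined with targeted agents, each dosed in half-log steps down from clinical Cmax, or from 10 microM when Cmax was unknown.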

## CCc1c2c(nc3ccc(O)cc13)-c1cc3c(c(=O)n1C2)COC(=O)[C@]3(O)CC + CCn1c(-c2cccnc2C(C)OC)c2c3cc(ccc31)N1CCOC(CC(NC(=O)C(C(C)C)N(C)C(=O)C3(F)CCN(C(=O)C#CC(C)(C)N(C)C)CC3)C(=O)N3CCCC(N3)C(=O)OCC(C)(C)C2)C1
Curve of first compound, second compound 0.000949 µM
  IC50: < 0.949 nM
Curve of first compound, second compound 0.003 µM
  IC50: < 0.949 nM
Curve of first compound, second compound 0.00949 µM
  IC50: < 0.949 nM
Curve of first compound, second compound 0.03 µM
  IC50: < 0.949 nM
Curve of first compound, second compound 0.0949 µM
  IC50: < 0.949 nM
Curve of first compound, second compound 0.3 µM
  IC50: < 0.949 nM
Second compound 0.000949 µM, first compound 0.000949 µM
  viability, T/C: 27.9%
Second compound 0.000949 µM, first compound 0.003 µM
  viability, T/C: 13.4%
Second compound 0.000949 µM, first compound 0.00949 µM
  viability, T/C: 3.4%
Second compound 0.000949 µM, first compound 0.03 µM
  viability, T/C: 2.46%
Second compound 0.000949 µM, first compound 0.0949 µM
  viability, T/C: 1.53%
Second compound 0.000949 µM, first compound 0.3 µM
  viability, T/C: 0.79%
Second compound 0.003 µM, first compound 0.000949 µM
  viability, T/C: 23.4%
Second compound 0.003 µM, first compound 0.003 µM
  viability, T/C: 12.6%
Second compound 0.003 µM, first compound 0.00949 µM
  viability, T/C: 3.29%
Second compound 0.003 µM, first compound 0.03 µM
  viability, T/C: 1.82%
Second compound 0.003 µM, first compound 0.0949 µM
  viability, T/C: 1.53%
Second compound 0.003 µM, first compound 0.3 µM
  viability, T/C: 0.91%
Second compound 0.00949 µM, first compound 0.000949 µM
  viability, T/C: 27.1%
Second compound 0.00949 µM, first compound 0.003 µM
  viability, T/C: 11.9%
Second compound 0.00949 µM, first compound 0.00949 µM
  viability, T/C: 3.95%
Second compound 0.00949 µM, first compound 0.03 µM
  viability, T/C: 2.01%
Second compound 0.00949 µM, first compound 0.0949 µM
  viability, T/C: 1.54%
Second compound 0.00949 µM, first compound 0.3 µM
  viability, T/C: 0.96%
Second compound 0.03 µM, first compound 0.000949 µM
  viability, T/C: 25.5%
Second compound 0.03 µM, first compound 0.003 µM
  viability, T/C: 12.3%
Second compound 0.03 µM, first compound 0.00949 µM
  viability, T/C: 3.53%
Second compound 0.03 µM, first compound 0.03 µM
  viability, T/C: 2.17%
Second compound 0.03 µM, first compound 0.0949 µM
  viability, T/C: 1.25%
Second compound 0.03 µM, first compound 0.3 µM
  viability, T/C: 0.77%
Second compound 0.0949 µM, first compound 0.000949 µM
  viability, T/C: 23.6%
Second compound 0.0949 µM, first compound 0.003 µM
  viability, T/C: 8.82%
Second compound 0.0949 µM, first compound 0.00949 µM
  viability, T/C: 3.56%
Second compound 0.0949 µM, first compound 0.03 µM
  viability, T/C: 1.45%
Second compound 0.0949 µM, first compound 0.0949 µM
  viability, T/C: 0.88%
Second compound 0.0949 µM, first compound 0.3 µM
  viability, T/C: 0.84%
Second compound 0.3 µM, first compound 0.000949 µM
  viability, T/C: 18.7%
Second compound 0.3 µM, first compound 0.003 µM
  viability, T/C: 7.22%
Second compound 0.3 µM, first compound 0.00949 µM
  viability, T/C: 2.67%
Second compound 0.3 µM, first compound 0.03 µM
  viability, T/C: 1.54%
Second compound 0.3 µM, first compound 0.0949 µM
  viability, T/C: 1.11%
Second compound 0.3 µM, first compound 0.3 µM
  viability, T/C: 1.43%

## CC(C)NCC(C(=O)N1CCN(c2ncnc3c2C(C)CC3O)CC1)c1ccc(Cl)cc1 (stereo not drawn)
Compound 0.0316 µM
  viability, T/C: 103% [middle of 4 runs]
Compound 0.1 µM
  viability, T/C: 97.1% [middle of 4 runs]
Compound 0.316 µM
  viability, T/C: 102% [middle of 4 runs]
Compound 1 µM
  viability, T/C: 93.3% [middle of 4 runs]
Compound 3.16 µM
  viability, T/C: 73.3% [middle of 4 runs]
Curve of compound
  IC50: > 10000 nM and 9190 nM and 9740 nM
